# Assay results reported in PMC11352273, “The Proapoptotic Action of Pyrrolidinedione–Thiazolidinone Hybrids towards Human Breast Carcinoma Cells Does Not Depend on Their Genotype” (Cancers, 2024).
# Where two headings read alike, the source gives them in different places.
# Experiments:
# MCF-10A cells [1] = assay: Clonogenic assay; format: cell-based; conditions: Homo sapiens; for IC50: 72 h exposure, 14 days culture, read-out: IC50 (M ± SD) in clonogenic assay
# Experimental: (§1) The clonogenic assay was carried out utilizing the previously published methodology. The MCF-7, MDA-MB-231, HCC1954, and MCF-10A cells (500 cells/2 mL) were seeded in a 12-well plate overnight. Afterward, studied derivatives or doxorubicin (1, 2.5, 5, 10, and 50 µM) were added to cells. The media was changed after 72 h to a compound-free one, and the cells were cultured for the following 14 days. Then, the cells were washed, fixed, and stained with 0.1% crystal violet. After washing, the plates were dried at room temperature. The colonies were recorded by ImageJ software (Version 1.30). The value of colonies in control (non-treated cells) was accepted as 100%. The effect of compounds on the colony-forming ability of cells was expressed as the percentage of colonies compared to the control.
# MCF-7 cells [2] = assay: Clonogenic assay; format: cell-based, human; conditions: for IC50: Homo sapiens, MCF7, MCF-7, 72 h exposure, 14 days culture, read-out: IC50 (M ± SD) in clonogenic assay
# Experimental: as §1
# HCC1954 cells [3] = assay: Clonogenic assay; format: cell-based, human; conditions: for IC50: Homo sapiens, HCC1954, 72 h exposure, 14 days culture, read-out: IC50 (M ± SD) in clonogenic assay
# Experimental: as §1
# MDA-MB-231 cells [4] = assay: Clonogenic assay; format: cell-based, human; conditions: for IC50: Homo sapiens, MDA-MB-231, 72 h exposure, 14 days culture, read-out: IC50 (M ± SD) in clonogenic assay
# Experimental: as §1
# 4T1 cells = assay: MTT assay; format: cell-based, murine; conditions: Mus musculus, read-out: IC50, µM (M ± SD)
# Experimental: (§2) The MCF-7 and MDA-MB-231 cells were cultured in the DMEM medium containing 10% of the FBS, HCC1954, T-47D, and 4T1 cells in the RPMI-1640 medium with the addition of 10% of the FBS, and MCF-10A cells in MEGM Mammary Epithelial Cell Growth Medium BulletKit supplemented with penicillin/streptomycin cocktail and 5% of horse serum. The cells were cultured in a […] atmosphere at 5% CO2 and 37 °C. After trypsinization, cells were counted using a Scepter 3.0 handheld automated cell counter (Millipore, Burlington, MA, USA).
# (§3) The MTT test was used to assess the metabolic activity of cells treated with the investigated substances following the Sigma-Aldrich manufacturer’s instructions. Briefly, compounds were added in 100 µL of the cultural medium, and cells were incubated for the next 24 and 48 h. Doxorubicin was used as a reference drug. The DMSO was added to dissolve the crystals of formazan. We used the ThermoScientific Evolution 201 UV–VIS spectrophotometer (ThermoFisher Scientific, Waltham, MA, USA) to measure the absorbance of formazan at 570 nm. The initial value of the relative number of cells in control (under 0.1% of the DMSO) was accepted as 100%. We used GraphPad Prism Version 9 to calculate the half-maximal inhibition concentration (IC50) of the studied compounds (the concentration of the drug that reduced cell viability by 50%).
# MCF-10A cells [5] = assay: [3H]-thymidine incorporation assay; format: cell-based; conditions: Homo sapiens, 24 h, read-out: IC50 (M ± SD) in [3H]-thymidine assay (DNA synthesis)
# Experimental: (§4) Following a 24 h cell treatment, the incorporation of [^3H]-thymidine into the DNA of the breast tumor and normal cells was used to measure the antiproliferative activity of Les-6287. The MCF-7, MDA-MB-231, HCC1954, and MCF-10A cells were seeded into six-well plates (density 3 × 10^5 cells/well) and cultured for 24 h. Then, they were incubated under the same conditions for the next 24 h with a growth medium containing the tested compounds and reference drug (doxorubicin) at different concentrations (1, 2.5, 5, 10, 50 µM). After 24 h, the medium was changed to a fresh one without FBS. A total of 0.5 µCi of tritium-labeled thymidine (specific activity: 7 Ci/mmol) was added to cells for 4 h. The cells were washed with 1 mL of 0.05 M Tris-HCl buffer pH 7.4 containing 0.11 M NaCl and 1 mL of 5% trichloroacetic acid (TCA). Each well was filled with 1 mL of a 0.1 M NaOH solution containing 1% SDS to complete cell lysis. After 5 min, the acquired cell lysates were put into scintillation vials and pre-filled with two milliliters of scintillation liquid. The Scintillation Counter 1900 TR, TRI-CARB (Packard, Perkin Elmer, Inc., San Jose, CA, USA) was used to record the results. The effect of compounds on DNA synthesis was expressed as % of the control (non-treated cells).
# MCF-7 cells [6] = assay: [3H]-thymidine incorporation assay; format: cell-based; conditions: Homo sapiens, MCF7; MCF-7, 24 h; read-out: IC50 (M ± SD) in [3H]-thymidine assay (DNA synthesis)
# Experimental: as §4
# HCC1954 cells [7] = assay: [3H]-thymidine incorporation assay; format: cell-based; conditions: Homo sapiens; HCC1954, 24 h; read-out: IC50 (M ± SD) in [3H]-thymidine assay (DNA synthesis)
# Experimental: as §4
# MDA-MB-231 cells [8] = assay: [3H]-thymidine incorporation assay; format: cell-based; conditions: Homo sapiens; MDA-MB-231, 24 h; read-out: IC50 (M ± SD) in [3H]-thymidine assay (DNA synthesis)
# Experimental: as §4
# [9] = tested on: mitogen-activated lymphocytes collected from the peripheral blood of a healthy donor; parameters: method as in PMID 37579525; conditions: cited from earlier work
# caspase 8 in MCF-7 cells = assay: Caspase-8 activity, FAM-FLICA flow cytometry; format: cell-based, human; conditions: MCF-7, 24 h
# Experimental: (§5) The assay was performed following the manufacturer’s instructions and the previously described methodology [25]. […] The cells were gathered, rinsed twice with chilled PBS, and reconstituted in an Apoptosis Wash Buffer. Then, 10 µL of freshly diluted FLICA solution was added to 290 µL of cell suspension and incubated for an hour at 37 °C. Following two rounds of washing with 2 mL of Apoptosis Wash Buffer, the cells were centrifuged, resuspended in 300 µL of the buffer, and then analyzed [25].
# [10] = tested on: MDA-MB-231, 4T1, MCF-7, T-47D, and HCC1954 cells; assay: MTT assay, summary over breast carcinoma cell lines; format: cell-based
# Experimental: as §2, §3
# [11] = tested on: MCF-7, MDA-MB-231, and HCC1954 cell lines; assay: [3H]-thymidine incorporation assay, summary over cancer cell lines; format: cell-based; conditions: Homo sapiens; 24 h, MCF-7, MDA-MB-231, HCC1954; read-out: IC50 of DNA synthesis inhibition, range over cell lines
# Experimental: as §4
# [12] = tested on: caspase 10 in MDA-MB-231 cells; assay: Caspase-10 activity, FAM-FLICA flow cytometry; format: cell-based, human; conditions: MDA-MB-231, 24 h
# [13] = tested on: caspase 9 in MDA-MB-231 cells; assay: Caspase-9 activity, FAM-FLICA flow cytometry; format: cell-based, human; conditions: MDA-MB-231, 24 h
# Experimental: as §5
IC50 (MCF-7 cells [2]) [µM],IC50 (HCC1954 cells [3]) [µM],IC50 (MDA-MB-231 cells [4]) [µM],"IC50 (4T1 cells; 4T1, 24 h) [µM]","IC50 (4T1 cells; 4T1, 48 h) [µM]",IC50 (MCF-7 cells [6]) [µM],IC50 (HCC1954 cells [7]) [µM],IC50 (MDA-MB-231 cells [8]) [µM],SMILES,IC50 (MCF-10A cells [1]) [µM],IC50 (MCF-10A cells [5]) [µM],further results
0.42 ± 0.08,0.43 ± 0.11,0.42 ± 0.11,2.37 ± 0.25,1.98 ± 0.21,0.66 ± 0.13,1.07 ± 0.04,0.63 ± 0.11,"COc1cccc2c1C(=O)c1c(O)c3c(c(O)c1C2=O)C[C@@](O)(C(=O)CO)C[C@@H]3O[C@H]1C[C@H](N)[C@H](O)[C@H](C)O1 [Dox, doxorubicin, reference compound]",0.47 ± 0.11,3.19 ± 0.43,
0.42 ± 0.08,0.43 ± 0.11,0.42 ± 0.11,1.6 ± 0.14,1.62 ± 0.21,2.37 ± 0.02,3.67 ± 0.09,2.32 ± 0.04,"O=C1CC(N2C(=O)C(=CC(Cl)=Cc3ccc([N+](=O)[O-])cc3)SC2=S)C(=O)N1c1ccc(O)cc1 (stereo not shown) [Les-6287, 1-(4-hydroxyphenyl)-3-[5-[2-chloro-3-(4-nitrophenyl)prop-2-enylidene]-4-oxo-2-thioxothiazolidine-3-yl]pyrrolidine-2,5-dione]",> 50,43.5 ± 1.16,"IC50 [9]: 29 to 67 µM; inhibition at 50 µM (MCF-10A cells [1]; compound at 50 µM, read-out: inhibition of the formation of colonies): 32.6%; cells with active caspase 8 (caspase 8 in MCF-7 cells; 1 µM): 11.08 ± 1.30%; cells with active caspase 8 (caspase 8 in MCF-7 cells; 1.5 µM): 17.78 ± 5.19%; IC50 ([10]; Breast carcinoma cell, 24 and 48 h, all five cancer cell lines and all three hybrids together, read-out: IC50, range over breast carcinoma cell lines): 1.37 to 21.9 µM; selectivity index (SI = IC50 for MCF-10A/IC50 for human breast tumor cells) ([10]; range over cell lines and time points): 24.10–47.13; formation of colonies (MCF-7 cells [2]; MCF-7, compound at 1 µM): totally inhibited; formation of colonies (HCC1954 cells [3]; HCC1954, compound at 1 µM): totally inhibited; formation of colonies (MDA-MB-231 cells [4]; MDA-MB-231, compound at 1 µM): totally inhibited; IC50 [11]: 2.32 to 3.67 µM; cells with active caspase 10 ([12]; 1 µM): 14.48 ± 2.53%; cells with active caspase 10 ([12]; 1.5 µM): 19.78 ± 0.80%; cells with active caspase 9 ([13]; 1 µM): 15.30 ± 0.80%; cells with active caspase 9 ([13]; 1.5 µM): 21.88 ± 2.00%"
